Values joined by “and” are separate entries in the source; they are usually repeats but may differ in a detail not shown here. Equal entries are not always repeated. Inconclusive results and toxic doses are left out. Rule as the data show it: active = T/C of 150% or more; inactive = T/C below 125%.
Test system: L1210 leukemia ip in BDF1 mice, survival T/C
Test: NCI In Vivo Anticancer Drug Screen. Data for tumor model L1210 Leukemia (intraperitoneal) in B6D2F1 (BDF1) mice
Settings: endpoint: mean survival time, higher = longer survival
Outline: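 Tumor cells were implanted, animals were treated, and survival was followed. The result divides the treated measurement by the vehicle-control measurement.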

[1] = dose: 100.0 mg/kg/injection, schedule: Q04DX003 (ip), vehicle: saline
[2] = dose: 200.0 mg/kg/injection, schedule: Q04DX003 (ip), vehicle: saline
[3] = dose: 400.0 mg/kg/injection, schedule: Q04DX003 (ip), vehicle: saline
[4] = dose: 50.0 mg/kg/injection, schedule: Q01DX009 (ip), vehicle: Klucel (hydroxypropylcellulose) (HPC)
[5] = dose: 100.0 mg/kg/injection, schedule: Q01DX009 (ip), vehicle: Klucel (hydroxypropylcellulose) (HPC)
[6] = dose: 100.0 mg/kg/injection, schedule: Q04DX003 (ip), vehicle: Klucel (hydroxypropylcellulose) (HPC)
[7] = dose: 200.0 mg/kg/injection, schedule: Q04DX003 (ip), vehicle: Klucel (hydroxypropylcellulose) (HPC)
[8] = dose: 400.0 mg/kg/injection, schedule: Q04DX003 (ip), vehicle: Klucel (hydroxypropylcellulose) (HPC)
[9] = dose: 12.5 mg/kg/injection, schedule: Q01DX009 (ip), vehicle: saline with Tween-80
[10] = dose: 25.0 mg/kg/injection, schedule: Q01DX009 (ip), vehicle: saline with Tween-80
[11] = dose: 50.0 mg/kg/injection, schedule: Q01DX009 (ip), vehicle: saline with Tween-80
[12] = dose: 200.0 mg/kg/injection, schedule: Q01DX009 (ip), vehicle: Klucel (hydroxypropylcellulose) (HPC)

Measured: T/C

COC(=O)c1c(OC)cc(OC)cc1OC
inactive: dose: 100.0 mg/kg/injection, schedule: Q01DX009 (ip), vehicle: other 96 % of control | [1] 100 % of control | dose: 200.0 mg/kg/injection, schedule: Q01DX009 (ip), vehicle: other 96 % of control | [2] 97 % of control | dose: 400.0 mg/kg/injection, schedule: Q01DX009 (ip), vehicle: other 94 % of control | [3] 95 % of control

c1ccc2nc(N3CCCCC3)c(N3CCCCC3)nc2c1
inactive: dose: 222.0 mg/kg/injection, schedule: Q01DX Z (ip), vehicle: methylcellulose (MC) 108 % of control | dose: 333.0 mg/kg/injection, schedule: Q01DX Z (ip), vehicle: methylcellulose (MC) 96 % of control | dose: 500.0 mg/kg/injection, schedule: Q01DX Z (ip), vehicle: methylcellulose (MC) 92 % of control

Nc1nc(N)nc(CCP(CCc2nc(N)nc(N)n2)CCc2nc(N)nc(N)n2)n1
inactive: dose: 25.0 mg/kg/injection, schedule: Q01DX009 (ip), vehicle: Klucel (hydroxypropylcellulose) (HPC) 110 % of control | [4] 108 % of control | [5] 104 % of control | [6] 110 % of control and 113 % of control | [7] 98 % of control and 100 % of control | [8] 101 % of control

Cc1ccc(C)c2c1CCCC2=O
inactive: [9] 110 % of control | [10] 107 % of control and 114 % of control | [11] 98 % of control and 106 % of control | dose: 100.0 mg/kg/injection, schedule: Q01DX009 (ip), vehicle: saline with Tween-80 88 % of control | dose: 200.0 mg/kg/injection, schedule: Q01DX009 (ip), vehicle: saline with Tween-80 93 % of control | dose: 400.0 mg/kg/injection, schedule: Q01DX009 (ip), vehicle: saline with Tween-80 96 % of control

Clc1ccc(N=Cc2ccccc2)cc1
inactive: [5] 104 % of control | [6] 95 % of control | [12] 103 % of control | [7] 96 % of control | dose: 400.0 mg/kg/injection, schedule: Q01DX009 (ip), vehicle: Klucel (hydroxypropylcellulose) (HPC) 98 % of control | [8] 104 % of control

CC(=O)Nc1cccc(Cl)c1F
inactive: dose: 100.0 mg/kg/injection, schedule: Q04DX002 (ip), vehicle: Klucel (hydroxypropylcellulose) (HPC) 100 % of control | dose: 200.0 mg/kg/injection, schedule: Q04DX002 (ip), vehicle: Klucel (hydroxypropylcellulose) (HPC) 93 % of control | dose: 400.0 mg/kg/injection, schedule: Q04DX002 (ip), vehicle: Klucel (hydroxypropylcellulose) (HPC) 107 % of control

CN(N=O)C(=O)Nc1cccc2cccnc12
inactive: dose: 6.25 mg/kg/injection, schedule: Q01DX Z (ip), vehicle: carboxymethylcellulose (CMC) 101 % of control | dose: 12.5 mg/kg/injection, schedule: Q01DX Z (ip), vehicle: carboxymethylcellulose (CMC) 106 % of control | dose: 25.0 mg/kg/injection, schedule: Q01DX Z (ip), vehicle: carboxymethylcellulose (CMC) 124 % of control

CN(N=O)C(=O)NC1CC2CCC1C2 (configuration not stated)
inactive: dose: 4.0 mg/kg/injection, schedule: Q01DX001 (ip), vehicle: other 104 % of control | dose: 8.0 mg/kg/injection, schedule: Q01DX001 (ip), vehicle: other 104 % of control | dose: 16.0 mg/kg/injection, schedule: Q01DX001 (ip), vehicle: other 108 % of control | dose: 31.0 mg/kg/injection, schedule: Q01DX001 (ip), vehicle: other 104 % of control | dose: 62.0 mg/kg/injection, schedule: Q01DX001 (ip), vehicle: other 100 % of control | dose: 125.0 mg/kg/injection, schedule: Q01DX001 (ip), vehicle: other 104 % of control | dose: 250.0 mg/kg/injection, schedule: Q01DX001 (ip), vehicle: other 112 % of control | dose: 375.0 mg/kg/injection, schedule: Q01DX001 (ip), vehicle: other 112 % of control | dose: 500.0 mg/kg/injection, schedule: Q01DX001 (ip), vehicle: other 118 % of control

CCC(C)NNC(C)CC (configuration not stated)
inactive: dose: 75.0 mg/kg/injection, schedule: Q01DX001 (ip), vehicle: other 98 % of control | dose: 150.0 mg/kg/injection, schedule: Q01DX001 (ip), vehicle: other 112 % of control | dose: 300.0 mg/kg/injection, schedule: Q01DX001 (ip), vehicle: other 103 % of control

CN(C)C(=S)SCC(=O)O
inactive: dose: 100.0 mg/kg/injection, schedule: Q04DX002 (ip), vehicle: saline with Tween-80 100 % of control | dose: 200.0 mg/kg/injection, schedule: Q04DX002 (ip), vehicle: saline with Tween-80 96 % of control | dose: 400.0 mg/kg/injection, schedule: Q04DX002 (ip), vehicle: saline with Tween-80 100 % of control

CCCCOP(=S)(OCCCC)[S][Hg][c]1ccco1
inactive: dose: 25.0 mg/kg/injection, schedule: Q04DX002 (ip), vehicle: alcohol 97 % of control | dose: 50.0 mg/kg/injection, schedule: Q04DX002 (ip), vehicle: alcohol 97 % of control

CCCCS(=O)(=O)CS(=O)(=O)CC
inactive: dose: 100.0 mg/kg/injection, schedule: Q01DX001 (ip), vehicle: saline with Tween-80 98 % of control | dose: 200.0 mg/kg/injection, schedule: Q01DX001 (ip), vehicle: saline with Tween-80 91 % of control | dose: 400.0 mg/kg/injection, schedule: Q01DX001 (ip), vehicle: saline with Tween-80 105 % of control

O=C1C(=O)c2ccccc2C(O)=C1CCCCCCCCCC[S+](CCO)CCO
inactive: dose: 100.0 mg/kg/injection, schedule: Q01DX001 (ip), vehicle: other 104 % of control | dose: 200.0 mg/kg/injection, schedule: Q01DX001 (ip), vehicle: other 101 % of control

CN(C)c1ccc(C(C#N)=C(C#N)C#N)cc1
inactive: dose: 100.0 mg/kg/injection, schedule: Q01DX001 (ip), vehicle: acetone 96 % of control | dose: 100.0 mg/kg/injection, schedule: Q01DX009 (ip), vehicle: acetone 97 % of control | dose: 200.0 mg/kg/injection, schedule: Q01DX001 (ip), vehicle: acetone 99 % of control | dose: 200.0 mg/kg/injection, schedule: Q01DX009 (ip), vehicle: acetone 97 % of control | dose: 400.0 mg/kg/injection, schedule: Q01DX001 (ip), vehicle: acetone 94 % of control

Cc1cc[n+](CCC(N)=O)cc1
inactive: dose: 100.0 mg/kg/injection, schedule: Q01DX009 (ip), vehicle: saline 95 % of control | [1] 93 % of control | dose: 200.0 mg/kg/injection, schedule: Q01DX009 (ip), vehicle: saline 93 % of control | [2] 98 % of control | dose: 400.0 mg/kg/injection, schedule: Q01DX009 (ip), vehicle: saline 93 % of control | [3] 102 % of control

CCCCNC(=O)CCl
inactive: dose: 100.0 mg/kg/injection, schedule: Q01DX001 (ip), vehicle: saline 96 % of control | dose: 200.0 mg/kg/injection, schedule: Q01DX001 (ip), vehicle: saline 113 % of control

N#CCCC(C#N)(c1ccncc1)N1CCOCC1 (configuration not stated)
inactive: [9] 105 % of control | [10] 102 % of control | [11] 94 % of control and 91 % of control

CC(=O)NC1CCC(Br)CC1 (configuration not stated)
inactive: [4] 94 % of control | [5] 105 % of control | [12] 102 % of control

Cc1ccc(N(O)C(=O)Nc2ccccc2)cc1
inactive: dose: 50.0 mg/kg/injection, schedule: Q01DX015 (ip), vehicle: methylcellulose (MC) 102 % of control | dose: 100.0 mg/kg/injection, schedule: Q01DX015 (ip), vehicle: methylcellulose (MC) 91 % of control | dose: 200.0 mg/kg/injection, schedule: Q01DX015 (ip), vehicle: methylcellulose (MC) 96 % of control
